Experimental data taken from ChEMBL document CHEMBL3734705, “Synthesis and in vitro cytotoxicity of novel C-12 substituted-14-deoxy-andrographolide derivatives as potent anti-cancer agents” (2015).

Columns and labels:
[1] = system: A549; assay: Cytotoxicity against human A549 cells assessed as growth level at 10 uM after 48 hrs by SRB assay; assay type: functional
[2] = system: EKVX; assay: Cytotoxicity against human EKVX cells assessed as growth level at 10 uM after 48 hrs by SRB assay; assay type: functional
[3] = Cytotoxicity against human HCT116 cells assessed as growth level at 10 uM after 48 hrs by SRB assay; assay type: functional, HCT-116
[4] = system: KM12; assay: Cytotoxicity against human KM12 cells assessed as growth level at 10 uM after 48 hrs by SRB assay; assay type: functional
[5] = Cytotoxicity against human SF268 cells assessed as growth level at 10 uM after 48 hrs by SRB assay; assay type: functional, SF-268
[6] = Cytotoxicity against human SF295 cells assessed as growth level at 10 uM after 48 hrs by SRB assay; assay type: functional, SF-295
[7] = system: U-251; assay: Cytotoxicity against human U251 cells assessed as growth level at 10 uM after 48 hrs by SRB assay; assay type: functional
[8] = system: Malme-3M; assay: Cytotoxicity against human MALME-3M cells assessed as growth level at 10 uM after 48 hrs by SRB assay; assay type: functional
[9] = system: MDA-MB-435; assay: Cytotoxicity against human MDA-MB-435 cells assessed as growth level at 10 uM after 48 hrs by SRB assay; assay type: functional
[10] = Cytotoxicity against human UACC257 cells assessed as growth level at 10 uM after 48 hrs by SRB assay; assay type: functional, UACC-257
[11] = Cytotoxicity against human OVCAR3 cells assessed as growth level at 10 uM after 48 hrs by SRB assay; assay type: functional, OVCAR-3
[12] = Cytotoxicity against human OVCAR4 cells assessed as growth level at 10 uM after 48 hrs by SRB assay; assay type: functional, OVCAR-4
[13] = Cytotoxicity against human OVCAR8 cells assessed as growth level at 10 uM after 48 hrs by SRB assay; assay type: functional, OVCAR-8
[14] = Cytotoxicity against human NCI-ADR-RES cells assessed as growth level at 10 uM after 48 hrs by SRB assay; assay type: functional
[15] = system: 786-0; assay: Cytotoxicity against human 786-0 cells assessed as growth level at 10 uM after 48 hrs by SRB assay; assay type: functional
[16] = system: A498; assay: Cytotoxicity against human A498 cells assessed as growth level at 10 uM after 48 hrs by SRB assay; assay type: functional
[17] = system: ACHN; assay: Cytotoxicity against human ACHN cells assessed as growth level at 10 uM after 48 hrs by SRB assay; assay type: functional
[18] = Cytotoxicity against human Caki1 cells assessed as growth level at 10 uM after 48 hrs by SRB assay; assay type: functional, CAKI-1
[19] = Cytotoxicity against human TK10 cells assessed as growth level at 10 uM after 48 hrs by SRB assay; assay type: functional, TK-10
[20] = system: MDA-MB-231; assay: Cytotoxicity against human MDA-MB-231 cells assessed as growth level at 10 uM after 48 hrs by SRB assay; assay type: functional
[21] = system: MDA-MB-468; assay: Cytotoxicity against human MDA-MB-468 cells assessed as growth level at 10 uM after 48 hrs by SRB assay; assay type: functional
[22] = system: K562; assay: Cytotoxicity against human K562 cells assessed as growth inhibition at 10 uM after 48 hrs by SRB assay; assay type: functional; details: K562, 48 h, read-out: GI
[23] = Cytotoxicity against human MOLT4 cells assessed as growth inhibition at 10 uM after 48 hrs by SRB assay; assay type: functional; details: MOLT-4, 48 h, read-out: GI
[24] = system: SR; assay: Cytotoxicity against human SR cells assessed as growth inhibition at 10 uM after 48 hrs by SRB assay; assay type: functional; details: read-out: GI
[25] = system: EKVX; assay: Cytotoxicity against human EKVX cells assessed as growth inhibition at 10 uM after 48 hrs by SRB assay; assay type: functional; details: read-out: GI
[26] = Cytotoxicity against human HOP92 cells assessed as growth inhibition at 10 uM after 48 hrs by SRB assay; assay type: functional; details: HOP-92, 48 h, read-out: GI
[27] = system: NCI-H226; assay: Cytotoxicity against human NCI-H226 cells assessed as growth inhibition at 10 uM after 48 hrs by SRB assay; assay type: functional; details: NCI-H226, 48 h, read-out: GI
[28] = system: NCI-H460; assay: Cytotoxicity against human NCI-H460 cells assessed as growth inhibition at 10 uM after 48 hrs by SRB assay; assay type: functional; details: NCI-H460, 48 h, read-out: GI
[29] = Cytotoxicity against human HCT116 cells assessed as growth inhibition at 10 uM after 48 hrs by SRB assay; assay type: functional; details: HCT-116, 48 h, read-out: GI
[30] = Cytotoxicity against human HCT15 cells assessed as growth inhibition at 10 uM after 48 hrs by SRB assay; assay type: functional; details: HCT-15, 48 h, read-out: GI
[31] = Cytotoxicity against human SW620 cells assessed as growth inhibition at 10 uM after 48 hrs by SRB assay; assay type: functional; details: SW-620, 48 h, read-out: GI
[32] = Cytotoxicity against human SF539 cells assessed as growth inhibition at 10 uM after 48 hrs by SRB assay; assay type: functional; details: SF-539, 48 h, read-out: GI
[33] = Cytotoxicity against human SNB19 cells assessed as growth inhibition at 10 uM after 48 hrs by SRB assay; assay type: functional; details: SNB-19, 48 h, read-out: GI
[34] = Cytotoxicity against human LOXIMVI cells assessed as growth inhibition at 10 uM after 48 hrs by SRB assay; assay type: functional; details: LOX IMVI, read-out: GI
[35] = system: MDA-MB-435; assay: Cytotoxicity against human MDA-MB-435 cells assessed as growth inhibition at 10 uM after 48 hrs by SRB assay; assay type: functional; details: MDA-MB-435, 48 h, read-out: GI
[36] = system: SK-MEL-28; assay: Cytotoxicity against human SK-MEL-28 cells assessed as growth inhibition at 10 uM after 48 hrs by SRB assay; assay type: functional; details: SK-MEL-28, 48 h, read-out: GI
[37] = Cytotoxicity against human IGROV1 cells assessed as growth inhibition at 10 uM after 48 hrs by SRB assay; assay type: functional; details: IGROV-1, 48 h, read-out: GI
[38] = Cytotoxicity against human OVCAR3 cells assessed as growth inhibition at 10 uM after 48 hrs by SRB assay; assay type: functional; details: OVCAR-3, 48 h, read-out: GI
[39] = Cytotoxicity against human OVCAR8 cells assessed as growth inhibition at 10 uM after 48 hrs by SRB assay; assay type: functional; details: OVCAR-8, 48 h, read-out: GI
[40] = Cytotoxicity against human SKOV3 cells assessed as growth inhibition at 10 uM after 48 hrs by SRB assay; assay type: functional; details: SK-OV-3, 48 h, read-out: GI
[41] = system: 786-0; assay: Cytotoxicity against human 786-0 cells assessed as growth inhibition at 10 uM after 48 hrs by SRB assay; assay type: functional; details: 786-0, 48 h, read-out: GI
[42] = system: MDA-MB-231; assay: Cytotoxicity against human MDA-MB-231 cells assessed as growth inhibition at 10 uM after 48 hrs by SRB assay; assay type: functional; details: MDA-MB-231, 48 h, read-out: GI
[43] = system: MDA-MB-468; assay: Cytotoxicity against human MDA-MB-468 cells assessed as growth inhibition at 10 uM after 48 hrs by SRB assay; assay type: functional; details: MDA-MB-468, 48 h, read-out: GI
[44] = system: K562; assay: Cytotoxicity against human K562 cells assessed as growth level at 10 uM after 48 hrs by SRB assay; assay type: functional

Structure (SMILES): C=C1CC[C@@H]2[C@](C)(COC(C)=O)[C@H](OC(C)=O)CC[C@@]2(C)[C@@H]1CC(NCc1cccc(Cl)c1)C1=CCOC1=O (mixture of isomers)
- Activity [1]: 54.21%
- Activity [2]: 77.89%
- Activity [3]: 35.94%
- Activity [4]: 46.76%
- Activity [5]: 53.28%
- Activity [6]: 85.92%
- Activity [7]: 30.91%
- Activity [8]: 76.11%
- Activity [9]: 51.65%
- Activity [10]: 25.21%
- Activity [11]: 47.44%
- Activity [12]: 50.4%
- Activity [13]: 42.73%
- Activity [14]: 60.33%
- Activity [15]: 62%
- Activity [16]: 64.78%
- Activity [17]: 41.58%
- Activity [18]: 48.33%
- Activity [19]: 63.29%
- Activity [20]: 65%
- Activity [21]: 25.62%
- inhibition of growth at 10 µM [22]: 81.5%
- inhibition of growth at 10 µM [23]: 78.1%
- inhibition of growth at 10 µM [24]: 88.5%
- inhibition of growth at 10 µM [25]: 22.1%
- inhibition of growth at 10 µM [26]: 33.7%
- inhibition of growth at 10 µM [27]: 53.7%
- inhibition of growth at 10 µM [28]: 65.2%
- inhibition of growth at 10 µM [29]: 64.1%
- inhibition of growth at 10 µM [30]: 62.3%
- inhibition of growth at 10 µM [31]: 61.7%
- inhibition of growth at 10 µM [32]: 25.9%
- inhibition of growth at 10 µM [33]: 44.4%
- inhibition of growth at 10 µM [34]: 87.3%
- inhibition of growth at 10 µM [35]: 48.4%
- inhibition of growth at 10 µM [36]: 23.4%
- inhibition of growth at 10 µM [37]: 35.9%
- inhibition of growth at 10 µM [38]: 52.6%
- inhibition of growth at 10 µM [39]: 57.3%
- inhibition of growth at 10 µM [40]: 26.9%
- inhibition of growth at 10 µM [41]: 38%
- inhibition of growth at 10 µM [42]: 35%
- inhibition of growth at 10 µM [43]: 74.4%
- Activity [44]: 18.48%
